In ChEMBL document CHEMBL1773066, “Design, synthesis, biological activity, and ADME properties of pyrazolo[3,4-d]pyrimidines active in hypoxic human leukemia cells: a lead optimization study” (J Med Chem, 2011):
pIC50, pKi: −log10 of the molar value. Values after ≈ are worked out from the molar mass of the structure shown. Active and inactive are the calls of the source. No cut-off for these calls is given here.

Columns and labels:
[1] = system: K562; experiment: cells; conditions: Homo sapiens, K562, 72 h
Description: Antiproliferative activity against human K562 cells under normoxic condition after 72 hrs by using CyQUANT GR dye

[2] = Apparent permeability of the compound at pH 7.4 by PAMPA assay; format: ADME
[3] = biological target: T1, Proto-oncogene tyrosine-protein kinase Src (Homo sapiens, UniProt P12931)
T1 sequence (P12931 2-536 limits assumed): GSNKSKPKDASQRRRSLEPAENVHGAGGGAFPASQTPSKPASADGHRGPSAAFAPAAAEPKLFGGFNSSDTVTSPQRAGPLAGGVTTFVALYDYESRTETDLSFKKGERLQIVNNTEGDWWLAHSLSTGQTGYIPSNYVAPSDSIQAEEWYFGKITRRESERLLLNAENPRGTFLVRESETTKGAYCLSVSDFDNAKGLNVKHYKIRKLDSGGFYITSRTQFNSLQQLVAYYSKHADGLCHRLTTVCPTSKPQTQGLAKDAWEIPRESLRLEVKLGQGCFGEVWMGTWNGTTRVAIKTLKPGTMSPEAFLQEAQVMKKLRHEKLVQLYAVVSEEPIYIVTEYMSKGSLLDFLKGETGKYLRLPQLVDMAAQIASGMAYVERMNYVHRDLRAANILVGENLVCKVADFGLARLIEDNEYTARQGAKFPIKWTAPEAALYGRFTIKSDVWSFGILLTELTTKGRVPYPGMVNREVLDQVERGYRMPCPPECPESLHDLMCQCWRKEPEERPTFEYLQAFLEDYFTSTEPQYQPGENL
Description: (§1) Inhibition of human recombinant c-Src by filter-binding assay

[4] = biological target: T2, Signal transducer and activator of transcription 5A (Homo sapiens) (UniProt P42229); experiment: Inhibition of STAT5 phosphorylation in human KU812 cells under normoxic condition after 3 hrs by Western blotting; format: cell-based
T2 sequence (whole entry): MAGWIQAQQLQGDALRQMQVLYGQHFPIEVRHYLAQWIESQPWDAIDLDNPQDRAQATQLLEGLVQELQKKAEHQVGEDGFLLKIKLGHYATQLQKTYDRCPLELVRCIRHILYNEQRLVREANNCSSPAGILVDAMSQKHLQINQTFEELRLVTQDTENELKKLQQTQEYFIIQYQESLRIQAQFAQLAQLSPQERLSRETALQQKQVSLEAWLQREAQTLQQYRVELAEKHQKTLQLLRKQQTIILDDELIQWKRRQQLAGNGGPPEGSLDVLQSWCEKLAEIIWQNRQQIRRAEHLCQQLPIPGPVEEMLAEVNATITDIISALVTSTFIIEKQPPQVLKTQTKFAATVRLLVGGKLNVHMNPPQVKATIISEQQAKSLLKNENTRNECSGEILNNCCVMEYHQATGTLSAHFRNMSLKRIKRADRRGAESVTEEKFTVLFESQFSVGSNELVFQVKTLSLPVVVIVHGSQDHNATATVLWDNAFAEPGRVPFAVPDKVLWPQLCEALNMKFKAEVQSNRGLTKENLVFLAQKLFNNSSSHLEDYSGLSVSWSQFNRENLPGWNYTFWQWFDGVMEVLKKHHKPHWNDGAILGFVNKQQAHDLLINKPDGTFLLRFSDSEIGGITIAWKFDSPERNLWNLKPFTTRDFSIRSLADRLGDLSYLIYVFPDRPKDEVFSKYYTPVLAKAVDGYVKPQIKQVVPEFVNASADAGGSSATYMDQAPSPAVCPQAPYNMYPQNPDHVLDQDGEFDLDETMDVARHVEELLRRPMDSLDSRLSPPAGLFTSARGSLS

[5] = cells; conditions: Homo sapiens, KU812, 72 h
Description: Antiproliferative activity against human KU812 cells under normoxic condition after 72 hrs by using CyQUANT GR dye

[6] = biological target: T2, Signal transducer and activator of transcription 5A (Homo sapiens); experiment: Inhibition of STAT5 phosphorylation in human K562 cells under hypoxic condition after 3 hrs by Western blotting; format: cell-based
[7] = system: K562; experiment: Inhibition of carbonic anhydrase 9 mRNA expression in human K562 cells under normoxic condition at 10 uM after 72 hrs by quantitative RT-PCR analysis; format: functional, cell-based
[8] = biological target: T2, Signal transducer and activator of transcription 5A (Homo sapiens); experiment: Inhibition of STAT5 phosphorylation in human KU812 cells under hypoxic condition after 3 hrs by Western blotting; format: cell-based
[9] = cells; conditions: Homo sapiens, KU812, 72 h; remark: listed apart in the source
Description: Antiproliferative activity against human KU812 cells under hypoxic condition after 72 hrs by using CyQUANT GR dye

[10] = system: K562; experiment: Induction of apoptosis in human K562 cells assessed as caspase-3 activity at 10 uM under normoxic condition after 72 hrs by fluorescence microplate reader; format: functional, cell-based
[11] = biological target: T2, Signal transducer and activator of transcription 5A (Homo sapiens); experiment: Inhibition of STAT5 phosphorylation in human K562 cells under normoxic condition after 3 hrs by Western blotting; format: cell-based
[12] = biological target: Tyrosine-protein kinase ABL1 (Homo sapiens, UniProt P00519)
Sequence of Tyrosine-protein kinase ABL1 (P00519 whole entry): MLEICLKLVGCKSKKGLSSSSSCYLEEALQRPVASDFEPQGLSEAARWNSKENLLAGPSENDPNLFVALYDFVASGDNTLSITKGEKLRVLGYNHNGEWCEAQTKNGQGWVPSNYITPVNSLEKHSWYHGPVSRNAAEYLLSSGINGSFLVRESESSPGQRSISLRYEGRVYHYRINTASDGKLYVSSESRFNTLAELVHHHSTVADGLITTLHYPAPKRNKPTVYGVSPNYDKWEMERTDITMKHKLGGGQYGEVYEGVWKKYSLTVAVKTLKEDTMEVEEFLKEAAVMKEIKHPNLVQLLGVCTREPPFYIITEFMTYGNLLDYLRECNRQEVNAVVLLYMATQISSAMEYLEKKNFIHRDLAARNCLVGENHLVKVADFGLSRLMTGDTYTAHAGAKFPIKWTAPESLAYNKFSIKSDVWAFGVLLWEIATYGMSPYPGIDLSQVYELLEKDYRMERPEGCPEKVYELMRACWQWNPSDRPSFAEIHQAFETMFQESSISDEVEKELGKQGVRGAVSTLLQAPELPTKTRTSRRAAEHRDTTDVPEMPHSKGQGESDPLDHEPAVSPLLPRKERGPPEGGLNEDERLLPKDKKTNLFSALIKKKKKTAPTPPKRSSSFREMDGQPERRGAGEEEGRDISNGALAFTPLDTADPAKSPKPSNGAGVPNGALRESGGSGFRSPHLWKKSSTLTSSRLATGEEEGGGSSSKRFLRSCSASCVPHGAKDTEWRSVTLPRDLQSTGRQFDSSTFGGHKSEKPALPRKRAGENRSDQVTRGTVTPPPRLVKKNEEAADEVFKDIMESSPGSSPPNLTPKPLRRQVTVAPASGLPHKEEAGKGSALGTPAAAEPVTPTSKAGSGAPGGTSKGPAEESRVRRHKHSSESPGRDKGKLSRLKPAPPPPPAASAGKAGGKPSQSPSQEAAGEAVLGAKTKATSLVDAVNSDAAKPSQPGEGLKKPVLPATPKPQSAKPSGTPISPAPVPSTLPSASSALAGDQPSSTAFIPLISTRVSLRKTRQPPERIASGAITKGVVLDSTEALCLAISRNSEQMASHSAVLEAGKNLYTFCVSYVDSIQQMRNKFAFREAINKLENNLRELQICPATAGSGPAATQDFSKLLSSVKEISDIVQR
Description: Inhibition of human recombinant c-Abl by filter-binding assay

[13] = Metabolic stability in human liver microsomes assessed as parent compound remaining after 60 mins by LC-MS analysis; format: ADME, Microsome; conditions: read-out: Stability
[14] = system: K562; experiment: Induction of apoptosis in human K562 cells assessed as caspase-3 activity at 10 uM under hypoxic condition after 72 hrs by fluorescence microplate reader; format: functional, cell-based
[15] = system: K562; experiment: cells; conditions: Homo sapiens, K562, 72 h; remark: listed apart in the source
Description: Antiproliferative activity against human K562 cells under hypoxic condition after 72 hrs by using CyQUANT GR dye

[16] = biological target: T2, Signal transducer and activator of transcription 5A (Homo sapiens); experiment: Inhibition of STAT5 phosphorylation in human MEG-01 cells under hypoxic condition after 3 hrs by Western blotting; format: cell-based
[17] = system: MEG-01; experiment: cells; conditions: Homo sapiens, MEG-01, 72 h
Description: Antiproliferative activity against human MEG01 cells under normoxic condition after 72 hrs by using CyQUANT GR dye

[18] = system: K562; experiment: Induction of apoptosis in human K562 cells assessed as caspase-3 mediated cleavage of PARP level at 10 uM after 72 hrs under hypoxic condition by immunoblot analysis; format: functional, cell-based
[19] = biological target: T2, Signal transducer and activator of transcription 5A (Homo sapiens); experiment: Inhibition of STAT5 phosphorylation in human MEG-01 cells under normoxic condition after 3 hrs by Western blotting; format: cell-based
[20] = system: MEG-01; experiment: cells; conditions: Homo sapiens, MEG-01, 72 h; remark: listed apart in the source
Description: Antiproliferative activity against human MEG01 cells under hypoxic condition after 72 hrs by using CyQUANT GR dye

[21] = system: K562; experiment: Inhibition of carbonic anhydrase 9 mRNA expression in human K562 cells under hypoxic condition at 10 uM after 72 hrs by quantitative RT-PCR analysis; format: functional, cell-based
[22] = Solubility of the compound in water at pH 7.4; format: physicochemical
[23] = system: K562; experiment: Induction of HIF1alpha expression in human K562 cells under hypoxic condition assessed as HIF1alpha accumulation after 3 hrs by Western blotting; format: functional, cell-based
[24] = Cytotoxicity against mouse BA/F3 cells expressing wild type p210Bcr-Abl; format: functional; conditions: BaF3, read-out: LD50 (the source's name)
[25] = Cytotoxicity against mouse BA/F3 cells expressing p210Bcr-Abl T315I mutant; format: functional; conditions: BaF3, read-out: LD50 (the source's name)
[26] = Cytotoxicity against mouse BA/F3 cells expressing p210Bcr-Abl E255K mutant; format: functional; conditions: BaF3, read-out: LD50 (the source's name)
[27] = Cytotoxicity against mouse BA/F3 cells expressing p210Bcr-Abl Y253F mutant; format: functional; conditions: BaF3, read-out: LD50 (the source's name)
[28] = biological target: T1, Proto-oncogene tyrosine-protein kinase Src; remark: listed apart in the source
Description: as §1

Compound | pIC50 [1] | Papp [2] [×10⁻⁶ cm/s] | inhibition [4] | pIC50 [5] | inhibition [6] | inhibition [8] | inhibition [11] | remaining at 1 h [13] [%] | pIC50 [15] | inhibition [16] | pIC50 [17] | inhibition [19] | pIC50 [20] | solubility [22] [µg/mL] | further results
Clc1cccc(Nc2nc(N3CCOCC3)nc3c2cnn3CC(Cl)c2ccccc2)c1 (stereo not drawn) | 4.91 | 14.8 | Active | 5.66 | Active | Active | Active | 90 | 5.34 | Active | 5.11 | Active | 4.82 | 0.13 (≈ 0.277 µM) | pKi [3]: 5.12; inhibition [7]: Active; pIC50 [9]: 4.79; Activity [10]: Active; pKi [12]: 6.41; Activity [14]: Active; Activity [18]: Active; inhibition [21]: Active; Activity [23]: inactive
CS(=O)(=O)c1nc(NCc2ccccc2)c2cnn(CC(Cl)c3ccccc3)c2n1 (stereo not drawn) | 4.45 |  |  | 4.44 |  |  |  |  |  |  | 4.38 |  |  |  | 
ClC(Cn1ncc2c(Nc3ccccc3)nc(SCCN3CCOCC3)nc21)c1ccccc1 (stereo not drawn) | 5.66 | 10 | Active |  | Active | Active | Active |  | 5.33 | Active |  | Active |  |  | 
Clc1cccc(Nc2nc(SCCN3CCOCC3)nc3c2cnn3CC(Cl)c2ccccc2)c1 (stereo not drawn) | 5.35 |  | Active |  | Active | Active | Active | 95 |  | Active | 5.21 | Active |  | 0.1 (≈ 0.189 µM) | 
Fc1ccc(C(Cl)Cn2ncc3c(NCc4ccncc4)ncnc32)cc1 (stereo not drawn) | 4.44 |  |  | 4.25 |  |  |  |  |  |  | 4.43 |  |  |  | 
Fc1ccc(CNc2ncnc3c2cnn3CC(Cl)c2ccc(Cl)cc2)cc1 (stereo not drawn) | 5.04 |  | Active | 5.09 | Active | Active | Active | 94 | 5.55 | Active | 5.21 | Active | 5.21 | < 0.04 | CC50 [24]: 0.7 µM; CC50 [25]: 0.7 µM; pIC50 [9]: 4.88; Activity [10]: Active; Activity [14]: Active; Activity [18]: Active; CC50 [26]: 0.7 µM; CC50 [27]: 0.7 µM; Activity [23]: inactive
Clc1ccc(C(Cl)Cn2ncc3c(NCc4ccccn4)ncnc32)cc1 (stereo not drawn) | 4.51 |  |  | 4.50 |  |  |  |  |  |  | 4.78 |  |  |  | 
ClC(Cn1ncc2c(NCc3ccccc3)nc(SCCN3CCOCC3)nc21)c1ccccc1 (stereo not drawn) | 5.51 | 9.1 | Active |  |  | Active |  | 95 | 5.29 | Active | 4.63 | Active | 4.71 | 1.2 (≈ 2.36 µM) | pKi [3]: 5.54; pKi [12]: 7.05
ClC(Cn1ncc2c(NCCc3ccccc3)nc(SCCN3CCOCC3)nc21)c1ccccc1 (stereo not drawn) |  |  |  |  |  |  |  |  |  |  |  |  |  |  | Ki [28]: Not Active
CC(Cn1ncc2c(Nc3cccc(Cl)c3)ncnc21)c1ccccc1 (stereo not drawn) |  | 13.5 |  |  |  |  |  | 75 |  |  |  |  |  | < 0.04 | 
Clc1ccc(C(Cl)Cn2ncc3c(NCc4ccncc4)ncnc32)cc1 (stereo not drawn) | 4.90 | 5.4 | Active | 5.00 | Active | Active | Active | 90 | 4.69 | Active | 4.84 | Active | 4.36 | 12.3 (≈ 30.8 µM) | pKi [3]: 5.41; pIC50 [9]: < 4.00; pKi [12]: 6.18; Activity [23]: inactive
OCCNc1nc(NCCc2ccccc2)c2cnn(/C=C\c3ccccc3)c2n1 | 5.64 | 2.6 |  |  |  |  |  | 84 | 5.09 |  | 4.89 |  | 4.47 | 0.4 (≈ 0.999 µM) | pKi [3]: 5.62; pKi [12]: 6.66
Fc1ccc(CNc2ncnc3c2cnn3CC(Cl)c2ccc(F)cc2)cc1 (stereo not drawn) |  | 11 |  |  |  |  |  | 82 |  |  |  |  |  | < 0.04 | 
Fc1ccc(C(Cl)Cn2ncc3c(NCc4ccccn4)ncnc32)cc1 (stereo not drawn) | 4.43 |  |  | 4.39 |  |  |  |  |  |  | 4.62 |  |  |  | 
